# Data reported in patent US6586413B2, “Methods and compositions for reducing ischemic injury of the heart by administering adenosine receptor agonists and antagonists” (The United States of America as represented by the …, priority 1999, dated 2003).
# Experiments:
# [1] = test system: ventricular myocytes cultured from chick embryos; test: Pharmacological preconditioning: 5 min exposure to agent, then 90 min simulated ischemia; format: cell-based; details: for preconditioning / cardioprotective effect: agent alone, 5 min exposure before 90 min ischemia; for maximal protection compared with full agonist: partial agonist vs full agonist (CCPA or Cl-IB-MECA); for effect of high concentration of partial agonist on protection by full agonist: with full agonist CCPA or Cl-IB-MECA
# Experimental: FIG. 14 is a graph showing that the partial A1 receptor agonist, 8-butylaminoCPA, mimics the cardioprotective effect of ischemic preconditioning. Ventricular myocytes were cultured from chick embryos 14 days in ovo. The ability of the partial A1 agonist, 8-butylaminoCPA (8-butylamino-N^6-cyclopentyladenosine), to induce preconditioning was determined. In brief, myocytes were exposed to 8-butylaminoCPA at the indicated concentrations for 5 min, incubated for 10 min with agonist-free medium, and then exposed to simulated ischemia for 90 min. The extent of myocyte injury was quantitated at the end of the 90 min period by determinating the percentage of cells killed and the amount of creatine kinase (CK) released (units per milligram of cell protein). Data are means±SE of values from five independent experiments.
# Determination of myocyte injury was made at the end of the ninety-minute hypoxia, at which time myocytes were taken out of the hypoxic incubator and re-exposed to room air (normal % O2). Aliquots of the media were then obtained for creatine kinase (CK) activity measurement, which is followed by quantitation of the number of viable cells. Measurement of basal level of cell injury was made after parallel incubation of control cells under normal % O2. The extent of hypoxia-induced injury to the ventricular cell was quantitatively determined by the percentages of cells killed and by the amount of CK released into the media according to a previously described method (16, 23). […] In brief, the media were replaced with a trypsin-EDTA buffer to detach the cells, which was then followed by sedimentation of the viable myocytes. Parallel changes in % cells killed and CK released (16, 23) further validated this assay for % cells killed. The amount of CK was measured as enzyme activity (unit/mg), and increases in CK activity above the control level were determined. The percentage of cells killed was calculated as the number of cells obtained from the control group (representing cells not subjected to any hypoxia or drug treatment) minus the number of cells from the treatment group divided by number of cells in control group multiplied by 100%.
# Media were then replaced with fresh media, which was then followed by exposure to 90-minute simulated ischemia and the data graphed.
# phospholipase C = test: Phospholipase C activity in cardiac myocytes; format: cell-based, chick
# Experimental: To further test this notion, the ability of 8-butylaminoCPA to stimulate phospholipase C as measured by […] formation, a downstream signaling molecule that mediates the cardioprotective effect of adenosine A1 receptor was determined.
# diacylglycerol level = test: Diacylglycerol (DAG) accumulation in [3H]myristate-labeled ventricular myocytes; format: cell-based, chick; details: 1 μM 8-butylaminoCPA or 10 nM MRS1760 for 5 min
# Experimental: FIGS. 15A and 15B show the coupling of the partial A1 and A3 receptor agonists to stimulation of DAG accumulation and the differential inhibitory effects of the phospholipase C inhibitor U-73122 on the cardioprotection caused by 8-butylaminoCPA or by MRS1760, respectively. FIG. 15A: Ventricular myocytes were labeled with [^3H]myristate (Dupont, 49 Ci/mmol, […]) for 24 hours, exposed to 1 μM of 8-butylaminoCPA or 10 nM MRS1760 for 5 min, and the amount of DAG was determined by thin-layer chromatography. Data are expressed as the percentage increase in the amount of DAG relative to that for unstimulated cells, and are means±SE of values from five independent experiments. FIG. 15B: Effects of U-73122 on cardioprotection induced by 8-butylaminoCPA or by MRS1760 were determined. U-73122 (10 μM) was either included or not during the 5 min exposure of ventricular myocytes to 1 μM 8-butylaminoCPA or 10 nM MRS1760, and cardiac injury was assessed after ischemia as described herein below. […]
# Quantitation of diacylglycerol (DAG) and measurement of phospholipase D (PLD) activity were carried out as previously described (35, 36). The formation of [^3H] phosphotidylethanol (PEt) during agonist exposure in media containing 0.5% (v/v) ethanol was determined by scintillation counting following its separation from other phospholipids on thin layer chromatography as described (36). […]
# phospholipase D = test: Phospholipase D activity ([3H]phosphatidylethanol formation); format: cell-based, chick
# Experimental: Quantitation of diacylglycerol (DAG) and measurement of phospholipase D (PLD) activity were carried out as previously described (35, 36). The formation of [^3H] phosphotidylethanol (PEt) during agonist exposure in media containing 0.5% (v/v) ethanol was determined by scintillation counting following its separation from other phospholipids on thin layer chromatography as described (36). The level of [^3H] PEt represents an index of the PLD activity. The position of DAG or PEt was determined by immersing the thin layer plate in an iodine chamber and their levels were expressed as a percentage of total lipids. Data were expressed as the percentage increase in the amount of DAG or PEt relative to that for unstimulated cells.
Compound,preconditioning / cardioprotective effect [1],maximal protection compared with full agonist [1],effect of high concentration of partial agonist on protection by full agonist [1],PLC activity (phospholipase C),diacylglycerol level (diacylglycerol level),PLD activity (phospholipase D)
"CCCCNc1nc2c(NC3CCCC3)ncnc2n1[C@@H]1O[C@H](CO)[C@@H](O)[C@H]1O [8-butylaminoCPA, 8-butylamino-N^6-cyclopentyladenosine]",able to induce a marked cardioprotective effect,less than that produced by the full agonist CCPA,able to antagonize the protection caused by the full agonist CCPA,able to stimulate PLC activity,an increase in the diacylglycerol level,
"OC[C@@]12C[C@@H]1[C@@H](n1cnc3c(NCc4cccc(I)c4)nc(Cl)nc31)[C@H](O)[C@@H]2O [MRS1760, (1′R,2′R,3′S,4′R,5′S)-4-{2-Chloro-6-[(3-iodophenylmethyl)amino]purin-9-yl}-1-(hydroxymethyl)bicyclo[3.1.0]-hexane-2,3-diol]",able to induce a marked protective effect against ischemia,less than the maximal effect caused by Cl-IB-MECA,blocked the protection induced by the full agonist Cl-IB-MECA,,an increase in the diacylglycerol level,able to stimulate PLD activity
